Measured values: patent publication US8119624B2, “Fused phenyl amido heterocyclic compounds” (Pfizer Inc., priority 2006, dated 2012)
Read-outs that look alike come from different tables or passages of the source.

Biological target: T1, Full-length glucokinase (beta cell isoform) (Homo sapiens, UniProt P35557)
T1 construct: Full-length glucokinase (beta cell isoform) was His-tagged at N-terminus; His tag (N); made in house
T1 sequence (P35557 1-465): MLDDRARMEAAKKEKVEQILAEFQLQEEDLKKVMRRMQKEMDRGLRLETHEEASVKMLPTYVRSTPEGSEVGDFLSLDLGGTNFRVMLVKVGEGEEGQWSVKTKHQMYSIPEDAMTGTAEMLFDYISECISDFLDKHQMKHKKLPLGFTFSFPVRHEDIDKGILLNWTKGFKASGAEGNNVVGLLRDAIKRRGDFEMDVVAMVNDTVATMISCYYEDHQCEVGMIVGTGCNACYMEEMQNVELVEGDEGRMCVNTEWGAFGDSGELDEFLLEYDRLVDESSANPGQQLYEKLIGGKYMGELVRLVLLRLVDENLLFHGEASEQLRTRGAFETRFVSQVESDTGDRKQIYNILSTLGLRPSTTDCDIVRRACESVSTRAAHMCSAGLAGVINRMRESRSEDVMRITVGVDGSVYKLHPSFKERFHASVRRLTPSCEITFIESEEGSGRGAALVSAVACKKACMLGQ
Assay: Glucokinase biochemical assay (PK/LDH-coupled, NADH depletion at 340 nm): % activation, EC50, % max activation
Conditions: for activation at 10 µM: read-out: % Activation at 10 uM; for EC50: GK activation; for Emax: read-out: % Max Activation
Outline: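 N-terminally His-tagged full-length human beta-cell glucokinase, room temperature, 5 mM glucose, 1 mM ATP, PK/LDH-coupled with 0.7 mM NADH, 1% DMSO final. Initial velocity from the 200–900 s slope of A340 decline. % activation = (Va/Vo−1)×100, measured across compound concentrations.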

[1] = 10 uM compound, 5 mM glucose, % Activation=(Va/Vo−1)×100
[2] = 5 mM glucose, fitted maximum activation

Row | SMILES | activation at 10 µM [1] [%] | EC50 (5 mM glucose, read-out: EC50) [µM] | Emax [2] [%] | EC50 (EC50 (uM), 5 mM glucose) [µM] | activation at 10 µM [%] | Emax [%]
1 | Cc1ccc(NC(=O)c2cc(Oc3ccc(S(C)(=O)=O)cc3)c3cc(C)oc3c2)nc1 [Example 252, 2-Methyl-N-(5-methylpyridin-2-yl)-4-(4-(methylsulfonyl)-phenoxy)-benzofuran-6-carboxamide] | 108 | 0.778 | 107 |  |  | 
2 | Cc1cc2c(Oc3ccc(S(C)(=O)=O)cc3)cc(C(=O)Nc3ccc(C(F)(F)F)cn3)cc2o1 [Example 253, 2-Methyl-4-(4-(methylsulfonyl)phenoxy)-N-(5-(trifluoromethyl)-pyridin-2-yl)benzofuran-6-carboxamide] | 32.1 |  |  |  |  | 
3 | Cc1cc2c(Oc3ccc(S(C)(=O)=O)cc3)cc(C(=O)Nc3ccc4c(n3)CCC4)cc2o1 [Example 254, N-(6,7-Dihydro-5H-cyclopenta[b]pyridin-2-yl)-2-methyl-4-(4-(methylsulfonyl)-phenoxy)benzofuran-6-carboxamide] | 53.3 | 3.4 | 71 |  |  | 
4 | Cc1cc(NC(=O)c2cc(Oc3ccc(S(C)(=O)=O)cc3)c3cc(C)oc3c2)no1 [Example 255, 2-Methyl-N-(5-methylisoxazol-3-yl)-4-(4-(methylsulfonyl)-phenoxy)-benzofuran-6-carboxamide] | 18.8 |  |  |  |  | 
5 | Cc1cc2c(Oc3ccc(S(C)(=O)=O)cc3)cc(C(=O)Nc3ccc(F)cn3)cc2o1 [Example 256, N-(5-Fluoropyridin-2-yl)-2-methyl-4-(4-(methylsulfonyl)-phenoxy)benzofuran-6-carboxamide] | 89.2 | 4.5 | 126 |  |  | 
6 | Cc1cc2c(Oc3ccc(S(C)(=O)=O)cc3)cc(C(=O)Nc3ccccn3)cc2o1 [Example 257, 2-Methyl-4-(4-(methylsulfonyl)phenoxy)-N-(pyridin-2-yl)-benzofuran-6-carboxamide] | 111 | 1.4 | 119 |  |  | 
7 | Cc1cc2c(Oc3ccc(S(C)(=O)=O)cc3)cc(C(=O)Nc3ccon3)cc2o1 [Example 258, N-(Isoxazol-3-yl)-2-methyl-4-(4-(methylsulfonyl)phenoxy)-benzofuran-6-carboxamide] | 99.7 | 5.8 | 142 |  |  | 
8 | COc1ccnc(NC(=O)c2cc(Oc3ccc(S(C)(=O)=O)cc3)c3cc(C)oc3c2)c1 [Example 259, N-(4-Methoxypyridin-2-yl)-2-methyl-4-(4-(methylsulfonyl)-phenoxy)-benzofuran-6-carboxamide] | 63.6 | 1 | 60 |  |  | 
9 | Cc1cc2c(Oc3ccc(S(C)(=O)=O)cc3)cc(C(=O)Nc3ccc(Cl)cn3)cc2o1 [Example 260, N-(5-chloropyridin-2-yl)-2-methyl-4-(4-(methylsulfonyl)-phenoxy)benzofuran-6-carboxamide] | 53.1 | 2.9 | 69 |  |  | 
10 | Cc1cc2c(Oc3ccc(S(C)(=O)=O)cc3)cc(C(=O)Nc3ccc(C#N)cn3)cc2o1 [Example 261, N-(5-cyanopyridin-2-yl)-2-methyl-4-(4-(methylsulfonyl)-phenoxy)benzofuran-6-carboxamide] | 58.8 | 7.9 | 81 |  |  | 
11 | Cc1cc2c(Oc3ccc(S(C)(=O)=O)cc3)cc(C(=O)Nc3cnc(N(C)C)cn3)cc2o1 [Example 262, N-(5-(Dimethylamino)pyrazin-2-yl)-2-methyl-4-(4-(methylsulfonyl)-phenoxy)-benzofuran-6-carboxamide] | 151 | 0.78 | 137 |  |  | 
12 | COc1cnc(NC(=O)c2cc(Oc3ccc(S(C)(=O)=O)cc3)c3cc(C)oc3c2)cn1 [Example 263, N-(5-methoxypyrazin-2-yl)-2-methyl-4-(4-(methylsulfonyl)-phenoxy)-benzofuran-6-carboxamide] | 157 | 0.84 | 146 |  |  | 
13 | COC(=O)c1ccc(NC(=O)c2cc(Oc3ccc(S(C)(=O)=O)cc3)c3cc(C)oc3c2)nc1 [Example 264, Methyl 6-(2-methyl-4-(4-(methylsulfonyl)phenoxy)benzofuran-6-carboxamido)nicotinate] | 80.5 | 1.3 | 79 |  |  | 
14 | CCc1ccc(NC(=O)c2cc(Oc3ccc(S(C)(=O)=O)cc3)c3cc(C)oc3c2)nc1 [Example 265, N-(5-Ethylpyridin-2-yl)-2-methyl-4-(4-(methylsulfonyl)-phenoxy)benzofuran-6-carboxamide] | 94.2 | 1.7 | 74 |  |  | 
15 | Cc1cc2c(Oc3ccc(S(C)(=O)=O)cc3)cc(C(=O)Nc3ccc(CO)cn3)cc2o1 [Example 266, N-(5-(Hydroxymethyl)pyridin-2-yl)-2-methyl-4-(4-(methylsulfonyl)-phenoxy)-benzofuran-6-carboxamide] | 81.4 | 1 | 91 |  |  | 

Second part, the molecule after the results:

Row | activation at 10 µM [1] [%] | EC50 (5 mM glucose, read-out: EC50) [µM] | Emax [2] [%] | EC50 (EC50 (uM), 5 mM glucose) [µM] | activation at 10 µM [%] | Emax [%] | SMILES
16 | 55.6 | 2.7 | 66 |  |  |  | Cc1ccc(NC(=O)c2cc(Oc3cc(F)ccc3S(C)(=O)=O)c3c(c2)OC(C)(CO)C3)nc1 (stereo not shown) [Example 236, 4-(5-Fluoro-2-methanesulfonyl-phenoxy)-2-hydroxymethyl-2-methyl-2,3-dihydro-benzofuran-6-carboxylic acid (5-methyl-pyridin-2-yl)-amide]
17 | 189 | 0.098 | 157 |  |  |  | COCC1(C)Cc2c(Oc3ccc(S(C)(=O)=O)c(F)c3)cc(C(=O)Nc3ccn(C)n3)cc2O1 (stereo not shown) [Example 237, 4-(3-Fluoro-4-methanesulfonyl-phenoxy)-2-methoxymethyl-2-methyl-2,3-dihydro-benzofuran-6-carboxylic acid (1-methyl-1H-pyrazol-3-yl)-amide]
18 | 89.8 | > 10 |  |  |  |  | COCC1(C)Cc2c(Oc3cc(F)ccc3S(C)(=O)=O)cc(C(=O)Nc3ccn(C)n3)cc2O1 (stereo not shown) [Example 238, 4-(5-Fluoro-2-methanesulfonyl-phenoxy)-2-methoxymethyl-2-methyl-2,3-dihydro-benzofuran-6-carboxylic acid (1-methyl-1H-pyrazol-3-yl)-amide]
19 | 32.1 | 0.02 | 42 |  |  |  | Cc1ccc(NC(=O)c2cc(Oc3ccc(C(=O)N(C)C)c(F)c3)c3c(c2)OC(C)(CO)C3)nc1 (stereo not shown) [Example 239, 4-(4-Dimethylcarbamoyl-3-fluoro-phenoxy)-2-hydroxymethyl-2-methyl-2,3-dihydro-benzofuran-6-carboxylic acid (5-methyl-pyridin-2-yl)-amide]
20 |  |  |  | 0.021 | 83 | 94 | Cc1ccc(NC(=O)c2cc(Oc3ccc(C(=O)N4CCC4)c(F)c3)c3c(c2)OC(C)(CO)C3)nc1 (stereo not shown) [Example 240, 4-[4-(Azetidine-1-carbonyl)-3-fluoro-phenoxy]-2-hydroxymethyl-2-methyl-2,3-dihydro-benzofuran-6-carboxylic acid (5-methyl-pyridin-2-yl)-amide]
21 | 127 | 0.058 | 135 |  |  |  | Cn1ccc(NC(=O)c2cc(Oc3ccc(C(=O)N4CCC4)c(F)c3)c3c(c2)OC(C)(CO)C3)n1 (stereo not shown) [Example 241, 4-[4-(Azetidine-1-carbonyl)-3-fluoro-phenoxy]-2-hydroxymethyl-2-methyl-2,3-dihydro-benzofuran-6-carboxylic acid (1-methyl-1H-pyrazol-3-yl)-amide]
22 | 140 | 0.063 | 144 |  |  |  | COCC1(C)Cc2c(Oc3ccc(C(=O)N4CCC4)c(F)c3)cc(C(=O)Nc3ccn(C)n3)cc2O1 (stereo not shown) [Example 242, 4-[4-(Azetidine-1-carbonyl)-3-fluoro-phenoxy]-2-methoxymethyl-2-methyl-2,3-dihydro-benzofuran-6-carboxylic acid (1-methyl-1H-pyrazol-3-yl)-amide]
23 | 196 | 0.13 | 236 |  |  |  | Cn1ccc(NC(=O)c2cc(Oc3ccc(S(=O)(=O)C4CC4)cc3)c3c(c2)OC(C)(CO)C3)n1 (stereo not shown) [Example 245, 4-(4-Cyclopropanesulfonyl-phenoxy)-2-hydroxymethyl-2-methyl-2,3-dihydro-benzofuran-6-carboxylic acid (1-methyl-1H-pyrazol-3-yl)-amide]
24 | 222 | 0.16 | 261 |  |  |  | Cn1ncc(NC(=O)c2cc(Oc3ccc(S(=O)(=O)C4CC4)cc3)c3c(c2)OC(C)(CO)C3)n1 (stereo not shown) [Example 246, 4-(4-Cyclopropanesulfonyl-phenoxy)-2-hydroxymethyl-2-methyl-2,3-dihydro-benzofuran-6-carboxylic acid (2-methyl-2H-[1,2,3]triazol-4-yl)-amide]
25 | 141 | 0.43 | 169 |  |  |  | Cn1ccc(NC(=O)c2cc(Oc3ccc(S(C)(=O)=O)cc3)c3c(c2)OC(C)(CF)C3)n1 (stereo not shown) [Example 251, 2-Fluoromethyl-4-(4-methanesulfonyl-phenoxy)-2-methyl-2,3-dihydro-benzofuran-6-carboxylic acid (1-methyl-1H-pyrazol-3-yl)-amide]
